Laboratory results taken from ChEMBL document CHEMBL1144789, “Identification of fredericamycin E from Streptomyces griseus: Insights into fredericamycin A biosynthesis highlighting carbaspirocycle formation” (J Nat Prod, 2008).

How the values were obtained:
Assay type in all cases: functional, cell-based
HCT-15 = test: Cytotoxicity against human HCT15 cells by calcein AM/[…] fluorometric detection
HT-29 = test: Cytotoxicity against human HT29 cells by calcein AM/[…] fluorometric detection
[1] = Cytotoxicity against mouse P388D1 cells by calcein AM/[…] fluorometric detection
A549 = test: Cytotoxicity against human A549 cells by calcein AM/[…] fluorometric detection
DU-145 = test: Cytotoxicity against human Du145 cells by calcein AM/[…] fluorometric detection
MCF7 = test: Cytotoxicity against human MCF7 cells by calcein AM/[…] fluorometric detection

| SMILES | EC50 (HCT-15) [nM] | EC50 (HT-29) [nM] | EC50 [1] [nM] | EC50 (A549) [nM] | EC50 (DU-145) [nM] | EC50 (MCF7) [nM] |
| --- | --- | --- | --- | --- | --- | --- |
| C/C=C/C=C/c1cc2cc3c(c(O)c2c(=O)[nH]1)[C@@]1(CC3)C(=O)c2c(O)c3c(c(O)c2C1=O)C(=O)C(OC)=CC3=O [FDM A] | 2400 | 570 | 50 | 1800 | 2700 | 360 |
| C/C=C/C=C/c1cc2cc3c(c(O)c2c(=O)[nH]1)[C@@]1(CC3)C(=O)C(=O)c2c(c(O)c3c(O)c(OC)cc(O)c3c2O)C1=O [FDM E] | 4000 | 3600 | 170 | 4100 | 8100 | 7300 |
